Source: patent US11896592B2, “Certain triazolopyridines and triazolopyrazines, compositions thereof and methods of use therefor” (Hutchison Medipharma Limited, priority 2009, dated 2024)

These compounds were tested against T1, Recombinant human Met (c-Met) (Homo sapiens, UniProt P08581) (assay: Inhibition of c-Met kinase activity using Transcreener FP assay). Settings: IC50, inhibition of c-Met kinase activity, Poly E4Y substrate, 28° C. 45 min.
T1 construct: purchased Invitrogen PV3143
Type: biochemical
Description: Compound dilution: dilute test articles to 5 folds of the testing concentration using 20% DMSO.
The mixture is kept on ice until use;
Prepare ATP standard curve stock as following:
3. Enzymatic reaction: in 96-well reaction plate
Add 5 μL of test article or 5 μL of 20% DMSO or 5 μL of 500 mM EDTA;
Add 10 μL of Enzyme/Substrate stock;
Add 10 μL of ATP Diluent to begin the enzyme reaction and mix on plate shaker;
Add 5 μL of 20% DMSO, 10 μL of assay buffer and 10 μL of ATP standard curve stock into standard curve wells;
Gently shake at 28° C. for 45 min.
4. Stop reaction and detect ADP
Prepare Detection Mix: According to the procedures described in the Assay kit, Alexa633 tracer, ADP antibody and stop & detect buffer were added into H2O and mixed thoroughly. Prepare Tracer Only control: According to the procedures described in the Assay kit, ADP Alexa633 tracer and stop & detect buffer were added to H2O and mixed throughly.
Prepare No Tracer control: According to the procedures described in the Assay kit, the stop & detect buffer was diluted with H2O;
Add 25 μL of detection mix, Tracer Only control and No Tracer control into corresponding wells, respectively;
The reaction plate was gently shaken at 28° C. for 1 h;
Florescence polarization (FP) was measured on TECAN F500. Excitation wavelength: 610 nm, Emission wavelength: 670 nm.
Compound well [ADP] represents the ADP concentration of the compound well. Positive control well [ADP] represents the ADP concentration of the 20% DMSO well. Conversion of mP value to ADP concentration is based on the formula which is determined by standard curve.
IC50: calculated using XL-Fit 2.0 software.

T1 sequence (P08581 956-1390 limits assumed): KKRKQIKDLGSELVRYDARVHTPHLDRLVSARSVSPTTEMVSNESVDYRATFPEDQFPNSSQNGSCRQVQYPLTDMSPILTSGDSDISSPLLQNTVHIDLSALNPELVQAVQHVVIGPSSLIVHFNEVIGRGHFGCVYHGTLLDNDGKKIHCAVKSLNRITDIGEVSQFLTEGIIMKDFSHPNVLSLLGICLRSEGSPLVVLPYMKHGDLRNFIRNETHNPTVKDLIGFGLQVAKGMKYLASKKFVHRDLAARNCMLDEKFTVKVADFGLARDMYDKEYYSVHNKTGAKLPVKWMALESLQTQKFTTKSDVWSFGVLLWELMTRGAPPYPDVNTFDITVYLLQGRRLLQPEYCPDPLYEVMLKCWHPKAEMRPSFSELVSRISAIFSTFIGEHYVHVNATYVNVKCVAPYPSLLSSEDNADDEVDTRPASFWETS

Row | Compound | IC50 [nM]
1 | C[C@@H](c1ccc2nccn2c1)n1nnc2ncc(-c3cnn(C)c3)nc21 [Compound 270] | 1 to 100

Same assay, conditions: Poly E4Y substrate, 28° C. 45 min, read-out: IC50, inhibition of c-Met kinase activity

Row | Compound | IC50 [nM]
2 | COCCOc1ccncc1Nc1cnc2nnn(Cc3ccc4ncccc4c3)c2n1 [Compound 208] | 100 to 1000
3 | CS(=O)(=O)n1cc(-c2ccc3nnn(Cc4ccc5ncccc5c4)c3n2)cn1 [Compound 150] | 1 to 100
4 | N#Cc1ccc(-c2ccc3nnn(Cc4ccc5ncccc5c4)c3n2)cn1 [Compound 103] | 100 to 1000
5 | COCCNc1ccncc1Nc1cnc2nnn(Cc3ccc4ncccc4c3)c2n1 [Compound 209] | 100 to 1000
6 | Cn1cc(-c2cnc3nnn(Cc4ccc5ncc(Br)n5c4)c3n2)cn1 [Compound 278, 1-((3-Bromoimidazo[1,2-a]pyridin-6-yl)methyl)-6-(1-methyl-1H-pyrazol-4-yl)-1H-[1,2,3]triazolo[4,5-b]pyrazine] | 1 to 100
7 | Cn1cc(Nc2cnc3nnn(Cc4ccc5ncccc5c4)c3n2)cn1 [Compound 173] | 1 to 100
8 | c1cnc2ccc(Cn3nnc4ncc(Nc5ccc(N6CCOCC6)cn5)nc43)cc2c1 [Compound 165] | 1 to 100
9 | COc1ccncc1Nc1cnc2nnn(Cc3ccc4ncccc4c3)c2n1 [Compound 210] | 1 to 100
10 | OCCn1cc(-c2cnc3nnn(Cc4ccn5ncc(CO)c5c4)c3n2)cn1 [Compound 313] | 1 to 100
11 | O=C(O)Cn1cc(-c2ccc3nnn(Cc4ccc5ncccc5c4)c3n2)cn1 [Compound 66] | 100 to 1000
12 | OCCOc1cc(Nc2cnc3nnn(Cc4ccc5ncccc5c4)c3n2)ccn1 [Compound 194] | 1 to 100
13 | C[C@@H](c1ccc2ncccc2c1)n1nnc2ccc(-c3cnn(CCO)c3)nc21 [Compound 77] | 1 to 100
14 | OCCn1cc(-c2cnc3nnn(Cc4ccn5nccc5n4)c3n2)cn1 [Compound 288] | 100 to 1000
15 | N#Cc1ccc(-c2ccc3nnn(Cc4ccc5ncccc5c4)c3n2)s1 [Compound 102] | 1 to 100
16 | Cn1cc(-c2ccc3nnn(C4(c5ccc6ncccc6c5)CC4)c3n2)cn1 [Compound 122] | 100 to 1000
17 | CC(c1cc2cnccc2s1)n1nnc2ncc(-c3cnn(CCO)c3)nc21 (stereo not drawn) [Compound 21] | 1 to 100
18 | OCCn1cc(-c2ccc3nnn(Cc4cc5cnccc5s4)c3n2)cn1 [Compound 74] | 100 to 1000
19 | OCCn1cc(-c2cnc3nnn(Cc4ccc5nccn5n4)c3n2)cn1 [Compound 281] | 1 to 100
20 | FC(F)(F)Cn1cc(-c2cnc3nnn(Cc4cc5[nH]ncc5s4)c3n2)cn1 [Compound 42] | 1 to 100
21 | FC(F)(F)Cn1cc(-c2cnc3nnn(Cc4ccc5nccn5n4)c3n2)cn1 [Compound 287] | 1 to 100
22 | COCCNc1cncc(Nc2cnc3nnn(Cc4ccc5ncccc5c4)c3n2)c1 [Compound 203] | 1 to 100
23 | COCCOc1cccc(Nc2cnc3nnn(Cc4ccc5ncccc5c4)c3n2)c1 [Compound 202] | 1 to 100
24 | N#CCn1cc(-c2ccc3nnn(Cc4ccc5ncccc5c4)c3n2)cn1 [Compound 117] | 1 to 100
25 | OCCn1cc(-c2ccc3nnn(Cc4cc5cccnc5cc4F)c3n2)cn1 [Compound 128] | 1 to 100
26 | c1csc(-c2cnc3nnn(Cc4cc5cccnc5s4)c3n2)c1 [Compound 6] | 100 to 1000

Row | Compound | IC50 [nM]
27 | CC(C)n1cc(-c2cnc3nnn(Cc4cc5[nH]ncc5s4)c3n2)cn1 [Compound 26] | 1 to 100
28 | CC(O)Cn1cc(-c2ccc3nnn(Cc4ccc5ncccc5c4)c3n2)cn1 (stereo not drawn) [Compound 100] | 100 to 1000
29 | O[C@@H]1CCC[C@H]1Nc1ccc2nnn(Cc3ccc4ncccc4c3)c2n1 [Compound 241] | 100 to 1000
30 | CC(c1cc2[nH]ncc2s1)n1nnc2ncc(-c3cnn(C)c3)nc21 (stereo not drawn) [Compound 299] | 100 to 1000
31 | c1cncc(Oc2cnc3nnn(Cc4ccc5ncccc5c4)c3n2)c1 [Compound 258] | 1 to 100
32 | O[C@@H]1CCC[C@H]1Nc1ccnc(Nc2cnc3nnn(Cc4ccc5ncccc5c4)c3n2)c1 [Compound 206] | 100 to 1000
33 | COCCNc1ccnc(Nc2cnc3nnn(Cc4ccc5ncccc5c4)c3n2)c1 [Compound 204] | 100 to 1000
34 | CC(c1ccc2nccn2c1)n1nnc2ncc(-c3cn[nH]c3)nc21 (stereo not drawn) [Compound 328] | 1 to 100
35 | OCCOc1ccnc(Nc2cnc3nnn(Cc4ccc5ncccc5c4)c3n2)c1 [Compound 201] | 100 to 1000
36 | OCCn1cc(-c2ccc3nnn(Cc4ccc5nccn5n4)c3n2)cn1 [Compound 273] | 100 to 1000
37 | c1cc2sc(Cn3nnc4ncc(-c5cnn(C6CCOCC6)c5)nc43)cc2cn1 [Compound 22] | 100 to 1000
38 | COCCn1cc(-c2cnc3nnn(Cc4n[nH]c5ncccc45)c3n2)cn1 [Compound 15] | 1 to 100
39 | N#Cc1cc(Nc2cnc3nnn(Cc4ccc5ncccc5c4)c3n2)ccn1 [Compound 190] | 1 to 100
40 | Cn1cc(-c2ccc3nnn(Cc4cc5[nH]ncc5s4)c3n2)cn1 [Compound 132] | 1 to 100
41 | COc1ncc(-c2cnc3nnn(C(C)c4ccc5nccn5c4)c3n2)cc1NS(C)(=O)=O (stereo not drawn) [Compound 329] | 1 to 100
42 | CNc1ccc(-c2ccc3nnn(Cc4ccc5ncccc5c4)c3n2)cn1 [Compound 76] | 1 to 100
43 | COc1cncc(Nc2ccc3nnn(Cc4ccc5ncccc5c4)c3n2)c1 [Compound 180] | 1 to 100
44 | Cn1cc(-c2ccc3nnn(Cc4ccc5ncsc5c4)c3n2)cn1 [Compound 72] | 1 to 100
45 | COCc1cnc2ccc([C@@H](C)n3nnc4ncc(-c5cnn(C)c5)nc43)cn12 [Compound 325] | 1 to 100
46 | COCc1cnc2ccc(C(C)n3nnc4ncc(-c5cnn(C)c5)nc43)cn12 (racemic) [Compound 318, 1-(1-(3-(methoxymethyl)imidazo[1,2-a]pyridin-6-yl)ethyl)-6-(1-methyl-1H-pyrazol-4-yl)-1H-[1,2,3]triazolo[4,5-b]pyrazine] | 1 to 100
47 | c1cc2sc(Cn3nnc4ncc(-c5cnn(C6CCNCC6)c5)nc43)cc2cn1 [Compound 18] | 100 to 1000
48 | Cc1cncc(Nc2cnc3nnn(Cc4ccc5ncccc5c4)c3n2)c1 [Compound 158] | 1 to 100
49 | COc1ccc(Nc2cnc3nnn(Cc4ccc5ncccc5c4)c3n2)cn1 [Compound 162] | 1 to 100
50 | CC(=O)Nc1ccc(-c2ccc3nnn(Cc4ccc5ncccc5c4)c3n2)cn1 [Compound 91] | 1 to 100
51 | Cc1cc(Nc2cnc3nnn(Cc4ccc5ncccc5c4)c3n2)no1 [Compound 200] | 1 to 100

Row | Compound | IC50 [nM]
52 | c1cc(-c2cnc3nnn(Cc4ccc5nccn5c4)c3n2)ccn1 [Compound 275] | 1 to 100
53 | C[C@H](c1ccc2ncccc2c1)n1nnc2ccc(-c3cnn(CCO)c3)nc21 [Compound 78] | 100 to 1000
54 | CCn1cc(-c2cnc3nnn(Cc4cc5c(cnn5CC)s4)c3n2)cn1 [Compound 37] | 100 to 1000
55 | Brc1cnc2nnn(Cc3ccc4ncnn4c3)c2n1 [Compound 284] | 100 to 1000
56 | c1cnc2ccc(Cn3nnc4ncc(Oc5ccncc5)nc43)cc2c1 [Compound 250] | 1 to 100
57 | Cn1cc(-c2ccc3nnn(Cc4cc5cccnc5cc4F)c3n2)cn1 [Compound 127] | 1 to 100
58 | OC1COCC1Nc1ccnc(Nc2cnc3nnn(Cc4ccc5ncccc5c4)c3n2)c1 (stereo not drawn) [Compound 226] | 1 to 100
59 | COCCOc1cccc(-c2ccc3nnn(Cc4ccc5ncccc5c4)c3n2)c1 [Compound 96] | 100 to 1000
60 | Cc1ccnc(Nc2cnc3nnn(Cc4ccc5ncccc5c4)c3n2)c1 [Compound 196] | 1 to 100
61 | COc1ccc(-c2cnc3nnn(Cc4ccc5nccn5c4)c3n2)cc1 [Compound 57] | 1 to 100
62 | c1ccc(Oc2cnc3nnn(Cc4ccc5ncccc5c4)c3n2)nc1 [Compound 257] | 100 to 1000
63 | Fc1ccc(-c2cnc3nnn(Cc4ccn5nccc5c4)c3n2)cc1 [Compound 303] | 1 to 100
64 | c1cnc2ccc(Cn3nnc4ncc(Nc5ccnc(O[C@@H]6CCOC6)c5)nc43)cc2c1 [Compound 218] | 1 to 100
65 | Nc1ccc(-c2ccc3nnn(Cc4ccc5ncccc5c4)c3n2)cn1 [Compound 62] | 1 to 100
66 | CS(=O)(=O)Nc1ccc(-c2ccc3nnn(Cc4ccc5ncccc5c4)c3n2)cn1 [Compound 90] | 1 to 100
67 | c1cnc2ccc(Cn3nnc4ccc(-c5cnn(C6CCNCC6)c5)nc43)cc2c1 [Compound 94] | 100 to 1000
68 | COCCOc1cc(Nc2cnc3nnn(Cc4ccc5ncccc5c4)c3n2)ccn1 [Compound 186] | 1 to 100
69 | Cc1cccc(Nc2ccc3nnn(Cc4ccc5ncccc5c4)c3n2)n1 [Compound 182] | 1 to 100
70 | CNc1cc(Nc2cnc3nnn(Cc4ccc5ncccc5c4)c3n2)ccn1 [Compound 231] | 100 to 1000
71 | COCCn1cc(-c2cnc3nnn(Cc4ccc5ncnn5c4)c3n2)cn1 [Compound 53] | 100 to 1000
72 | CC(C)n1cc(-c2cnc3nnn(Cc4ccc5nccn5c4)c3n2)cn1 [Compound 34] | 1 to 100
73 | Cn1cnc(-c2ccc3nnn(Cc4ccc5ncccc5c4)c3n2)c1 [Compound 108] | 100 to 1000
74 | CNc1ccc(Nc2cnc3nnn(Cc4ccc5ncccc5c4)c3n2)cn1 [Compound 187] | 100 to 1000
75 | FC(F)(F)Cn1cc(-c2ccc3nnn(Cc4ccc5nccn5c4)c3n2)cn1 [Compound 141] | 1 to 100
